We go through 6 molecules from patent US20180206529A1, “FAST-DISSOLVING, CO-CRYSTALLINE FORMS OF SODIUM CHLORIDE” (NESTEC S.A., priority 2015, published 2018).

Common to all, as to type: physicochemical
A short description of data set [1]: Glucose NaCl kinetics of dissolution via refractometry. Particulars: 60 mL of water, stirring, particle size 100-200 μm, average of three experiments. As to the method: The (Glucose)2⋅NaCl⋅H2O co-crystals of Example 3 were tested for their dissolution behavior by refractometry. The equipment used was a RFM300+ refractometer by Bellingham and Stanley. The test samples were added to 60 mL of water, and the dissolution was measured under stirring at 50 rpm using a refractometer with one measurement/second for […]. Every dissolution experiment was performed three times and the average value was calculated. The particle size was 100-200 μm.

Data set [2] is described as follows: Dissolution kinetics via microscopic analysis (video-microscopy of one individual crystal in water). Particulars: 100-200 μm, fully immersed in 10 μL of water. As for the experimental part:
One individual crystal of sodium chloride, Glucose monohydrate, anhydrous Glucose and of (Glucose)2⋅NaCl⋅H2O co-crystal prepared according to the method of Example 3 was tested for its dissolution behavior by microscope. The analysis was performed in analogy to the method described by Quilaqueo et al. (“Dissolution of NaCl crystals in artificial saliva and water by video-microscopy”, Food Research International 69, 2015, p. 373-380).
A digital microscope was used to perform video-microscopy on the co-crystals and their respective individual components. Crystal size in general ranged between 100-200 μm. Images were recorded on a DFC450 digital microscope from Leica Microsystems with a high quality 5 Megapixel CCD sensor. The light intensity and contrast were controlled by using a VH-K20 Variable Illumination. The software used to record and analyze the video images was provided by the supplier of the module Leica LAS MultiTime.
One individual crystal specimen of sufficient quality and crystallinity was fixed on the microscope table using double-face adhesive tape. The crystal was fully immersed in 10 μL of water and the video recorded in parallel. The recording was dissected into individual film stills and the remaining crystalline area was determined until complete dissolution occurred using the respective software.
Applying this methodology, a first order kinetic was used to interpret the result:
Where At is the area (μm^2) of the remaining solid crystal at a time t (in seconds), A0 is the initial area (μm^2) of the crystal, t is the time (s) and k is the constant (s^−1).

The nature of data set [3]: Dissolution kinetics via refractometry for the system sucrose/sodium chloride. Particulars: 60 mL of water, room temperature, constant stirring, particle size 63-100 μm. As to the method: Changes in refraction of the solution were measured at room temperature while adding a defined amount of solid material to the solvent (60 mL of water) under constant stirring. The equipment used is composed of a magnetic stirrer and a digital refractive index probe (Fiso technologies) capable of constant measurement. Once the powder is added, refractive indices are recorded as a function of time. This technique was used to compare the dissolution behavior of the sucrose⋅NaCl⋅H2O co-crystal with its pure individual components as well as the physical mixture of the two pure ingredients. The particle size of all solids was standardized to be in between 63-100 μm.
Quantities Used for the Measurements:
Sucrose⋅NaCl⋅H2O co-crystal 2.00 g

Each structure is given as a SMILES string.

As for `O.OC[C@H]1O[C@H](O)[C@H](O)[C@@H](O)[C@@H]1O.OC[C@H]1O[C@H](O)[C@H](O)[C@@H](O)[C@@H]1O.[Cl-].[Na+]` [(Glucose)2•NaCl•H2O co-crystal, (α-D-Glucose)2⋅NaCl⋅H2O], in data set [1], the “10% dissolution reached at” value is recorded as 6 s, the “50% dissolution reached at” value is reported as 11 s and the “90% dissolution reached at” value worked out at 25 s. Further, in data set [1] (listed as (Glucose)2⋅NaCl⋅H2O), the “90% dissolution reached at” value was 25 s. Further, in data set [1] (listed as (Glucose)2⋅NaCl⋅H2O co-crystals), the “90% dissolution reached at” value was not above 25 s. Besides, the “k, constant of first order dissolution kinetic (crystal area over time)” value (from here on “k, constant … (crystal area over time)”) in data set [2] came out at 0.19 s⁻¹.
With `OC[C@H]1OC(O)[C@H](O)[C@@H](O)[C@@H]1O` (stereo partly drawn) [Anhydrous Glucose], in data set [1], the “10% dissolution reached at” value is on record as 6 s, the “50% dissolution reached at” value came out at 17 s and the “90% dissolution reached at” value was determined as 289 s. Further, the “k, constant … (crystal area over time)” value in data set [2] amounted to 0.14 s⁻¹.
Turning to `O.OC[C@H]1O[C@H](O)[C@H](O)[C@@H](O)[C@@H]1O` [Glucose monohydrate, alpha-D-(+)-Glucose monohydrate], in data set [1], the “10% dissolution reached at” value was determined as 6 s, the “50% dissolution reached at” value turned out to be 51 s and the “90% dissolution reached at” value was determined as 214 s. Besides, the “k, constant … (crystal area over time)” value in data set [2] worked out at 0.08 s⁻¹.
For the molecule `[Cl-].[Na+]` [NaCl, sodium chloride], in data set [1], the “10% dissolution reached at” value is 4 s, the “50% dissolution reached at” value turned out to be 8 s and the “90% dissolution reached at” value is reported as 29 s. In addition, the “k, constant … (crystal area over time)” value in data set [2] was 0.21 s⁻¹. Moreover, the “dissolution speed (normalized refractive index versus time, FIG. 7)” value in data set [3] is on record as “dissolves the fastest”.
With `OC[C@H]1O[C@@](CO)(O[C@H]2O[C@H](CO)[C@@H](O)[C@H](O)[C@H]2O)[C@@H](O)[C@@H]1O` [Pure sucrose, (D)-(+)-Sucrose], the “dissolution speed (normalized refractive index versus time, FIG. 7)” value in data set [3] is reported as “dissolves much slower”.
Same read-out and setting: the same measure for `O.O.OCC1OC(OC2(CO)OC(CO)C(O)C2O)C(O)C(O)C1O.[Cl-].[Na+]` (stereo not drawn) [sucrose⋅NaCl⋅H2O co-crystal, Sucrose⋅NaCl⋅2 H2O]: “dissolved almost as fast”.
